Experimental data taken from patent US20070213339A1 (Bayer Pharmaceuticals Corporation, priority 2004, published 2007).
pIC50: −log10 of the molar value.

Test system: Colo205 human colon carcinoma cell line
Assay: In vitro tumor cell proliferation assay (MTS, CellTiter 96 Aqueous One Solution)
Type: cell-based
Conditions: COLO 205, Colo205 cells, 72 hours compound exposure, MTS absorbance at 490 nm, read-out: IC50 (concentration of test compound required to inhibit proliferation of 50% of the cells)
Outline: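 Proliferation measured as MTS tetrazolium reduction (490 nm) after 72 h compound exposure at 37 °C. Cells plated at 2000 per well in serum-supplemented RPMI-1640; duplicate 5-point dilutions topping out at 10-20 μM. Percent inhibition versus untreated and cell-free wells, IC50 derived by linear regression.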

| SMILES | pIC50 |
| --- | --- |
| O=C(O)c1cn(-c2ccc(CNC3CCCC3)cc2)c2c(OC(F)(F)Cl)c(N3CCN(c4ccccn4)CC3)c(F)cc2c1=O [Example 180, 8-(chloro-difluoromethoxy)-1-(4-cyclopentylaminomethyl-phenyl)-6-fluoro-4-oxo-7-(4-pyridin-2-yl-piperazin-1-yl)-1,4-dihydroquinoline-3-carboxylic acid] | > 6.30 |
| O=C(O)c1cn(-c2ccc(CNC3CCCC3)cc2)c2c(OC(F)(F)Cl)c(N3CCN(c4ccc(F)cc4)CC3)c(F)cc2c1=O [Example 181, 8-(chloro-difluoromethoxy)-1-(4-cyclopentylaminomethyl-phenyl)-6-fluoro-4-oxo-7-[4(4-fluorophenyl)piperazine-1-yl]-1,4-dihydroquinoline-3-carboxylic acid] | > 6.30 |
| O=C(O)c1cn(-c2ccc(CNC3CCCC3)cc2)c2c(OC(F)(F)F)c(N3CCN(c4ccc(F)cc4)CC3)c(F)cc2c1=O [Example 182, 1-(4-cyclopentylaminomethyl-phenyl)-6-fluoro-7-[4-(4-fluorophenyl)-piperazine-1-yl]-4-oxo-8-trifluoromethoxy-1,4-dihydroquinoline-3-carboxylic acid] | > 6.30 |
| N#Cc1cccnc1N1CCN(c2c(F)cc3c(=O)c(C(=O)O)cn(-c4ccc(CN5CCCC5)c(F)c4)c3c2Cl)CC1 [Example 184, 8-chloro-7-[4-(3-cyanopyridin-2-yl)-piperazine-1-yl]-6-fluoro-1-(3-fluoro-4-pyrrolidin-1-ylmethyl-phenyl)-4-oxo-1,4-dihydroquinoline-3-carboxylic acid] | > 6.30 |
| N#Cc1ccccc1N1CCN(c2c(F)cc3c(=O)c(C(=O)O)cn(-c4ccc(CN5CCCC5)c(F)c4)c3c2Cl)CC1 [Example 185, 8-chloro-7-[4-(2-cyanophenyl)-piperazine-1-yl]-6-fluoro-1-(3-fluoro-4-pyrrolidin-1-ylmethyl-phenyl)-4-oxo-1,4-dihydroquinoline-3-carboxylic acid] | > 6.30 |
| O=C(O)c1cn(-c2ccc(CN3CCCC3)c(F)c2)c2c(Cl)c(N3CCN(c4ccc(F)cc4)CC3)c(F)cc2c1=O [Example 186, 8-chloro-7-[4-(4-fluorophenyl)-piperazine-1-yl]-6-fluoro-1-(3-fluoro-4-pyrrolidin-1-ylmethyl-phenyl)-4-oxo-1,4-dihydroquinoline-3-carboxylic acid] | > 6.30 |
| O=C(O)c1cn(-c2ccc(CN3CCCC3)c(F)c2)c2c(Cl)c(N3CCN(c4ccc(Cl)cc4)CC3)c(F)cc2c1=O [Example 187, 8-chloro-7-[4-(4-chlorophenyl)-piperazine-1-yl]-6-fluoro-1-(3-fluoro-4-pyrrolidin-1-ylmethyl-phenyl)-4-oxo-1,4-dihydroquinoline-3-carboxylic acid] | > 6.30 |
| N#Cc1ccc(N2CCN(c3c(F)cc4c(=O)c(C(=O)O)cn(-c5ccc(CN6CCCC6)c(F)c5)c4c3Cl)CC2)cc1 [Example 188, 8-chloro-7-[4-(4-cyanophenyl)-piperazine-1-yl]-6-fluoro-1-(3-fluoro-4-pyrrolidin-1-ylmethyl-phenyl)-4-oxo-1,4-dihydroquinoline-3-carboxylic acid] | > 6.30 |
| O=C(O)c1cn(-c2ccc(CNC3CCCCC3)cc2)c2c(Cl)c(N3CCN(c4ncccn4)CC3)c(F)cc2c1=O [Example 189, 8-chloro-1-(4-cyclohexylaminomethyl-phenyl)-6-fluoro-4-oxo-7-(4-pyrimidin-2-yl-piperazin-1-yl)-1,4-dihydroquinoline-3-carboxylic acid] | > 6.30 |
| O=C(O)c1cn(-c2ccc(CNCC3CCCCC3)cc2)c2c(Cl)c(N3CCN(c4ncccn4)CC3)c(F)cc2c1=O [Example 190, 8-chloro-1-{4-[(4-cyclohelmethyl-amino)-methyl]-phenyl}-6-fluoro-4-oxo-7-(4-pyrimidin-2-yl-piperazin-1-yl)-1,4-dihydroquinoline-3-carboxylic acid] | 4.70 to 5.70 |
| O=C(O)c1cn(-c2ccc(CNC3CCC3)cc2)c2c(Cl)c(N3CCN(c4ncccn4)CC3)c(F)cc2c1=O [Example 191, 8-chloro-1-(4-cyclobutylaminomethyl-phenyl)-6-fluoro-4-oxo-7-(4-pyrimidin-2-yl-piperazin-1-yl)-1,4-dihydroquinoline-3-carboxylic acid] | > 6.30 |
| COc1c(N2CCN(c3ccc(C#N)cc3)CC2)c(F)cc2c(=O)c(C(=O)O)cn(-c3ccc(CN4CCCCC4)cc3)c12 [Example 192, 7-[4-(4-cyanophenyl)-piperazine-1-yl]-6-fluoro-8-methoxy-4-oxo-1-(4-piperidin-1-ylmethyl-phenyl)-1,4-dihydroquinoline-3-carboxylic acid] | > 6.30 |
| COc1c(N2CCN(c3ncccn3)CC2)c(F)cc2c(=O)c(C(=O)O)cn(-c3ccc(CN4CCCCC4)cc3)c12 [Example 193, 6-fluoro-8-methoxy-4-oxo-1-(4-piperidin-1-ylmethyl-phenyl)-7-(4-pyrimidine-2-yl-piperazine-1-yl]-1,4-dihydroquinoline-3-carboxylic acid] | > 6.30 |
| COc1c(N2CCN(c3ccccn3)CC2)c(F)cc2c(=O)c(C(=O)O)cn(-c3ccc(CN4CCCCC4)cc3)c12 [Example 194, 6-fluoro-8-methoxy-4-oxo-1-(4-piperidin-1-ylmethyl-phenyl)-7-(4-pyridin-2-yl-piperazine-1-yl]-1,4-dihydroquinoline-3-carboxylic acid] | > 6.30 |
